Source: patent US20250026748A1, “N-(5-SUBSTITUTED-[(1,3,4-THIADIAZOLYL) OR (THIAZOLYL)])(SUBSTITUTED)CARBOXAMIDE COMPOUNDS AND USE THEREOF FOR INHIBITING HUMAN POLYMERASE THETA” (Repare Therapeutics Inc., priority 2021, published 2025)

These molecules were tested against PolQ ATPase enzyme (1-894) (Homo sapiens (Human), UniProt O75417) (assay: Polθ ATPase enzymatic assay (0.5 nM enzyme concentration), ADP-Glo). Details: average IC50; 0.5 nM PolQ ATPase enzyme (1-894).
Assay type: biochemical
How it was run: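 Enzyme (0.5 nM) pre-incubated 15 min at rt with 10-point inhibitor series in 50 mM Tris pH 7.5, 10% glycerol, 5 mM DTT, 10 mM MgCl2, 0.1 mg/ml BSA; reaction started with 20 nM fork DNA and 100 μM ATP, run 180 min at rt. ADP-Glo luminescence; IC50 from 4-parameter variable-slope fit.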

Sequence of PolQ ATPase enzyme (1-894) (O75417 1-894): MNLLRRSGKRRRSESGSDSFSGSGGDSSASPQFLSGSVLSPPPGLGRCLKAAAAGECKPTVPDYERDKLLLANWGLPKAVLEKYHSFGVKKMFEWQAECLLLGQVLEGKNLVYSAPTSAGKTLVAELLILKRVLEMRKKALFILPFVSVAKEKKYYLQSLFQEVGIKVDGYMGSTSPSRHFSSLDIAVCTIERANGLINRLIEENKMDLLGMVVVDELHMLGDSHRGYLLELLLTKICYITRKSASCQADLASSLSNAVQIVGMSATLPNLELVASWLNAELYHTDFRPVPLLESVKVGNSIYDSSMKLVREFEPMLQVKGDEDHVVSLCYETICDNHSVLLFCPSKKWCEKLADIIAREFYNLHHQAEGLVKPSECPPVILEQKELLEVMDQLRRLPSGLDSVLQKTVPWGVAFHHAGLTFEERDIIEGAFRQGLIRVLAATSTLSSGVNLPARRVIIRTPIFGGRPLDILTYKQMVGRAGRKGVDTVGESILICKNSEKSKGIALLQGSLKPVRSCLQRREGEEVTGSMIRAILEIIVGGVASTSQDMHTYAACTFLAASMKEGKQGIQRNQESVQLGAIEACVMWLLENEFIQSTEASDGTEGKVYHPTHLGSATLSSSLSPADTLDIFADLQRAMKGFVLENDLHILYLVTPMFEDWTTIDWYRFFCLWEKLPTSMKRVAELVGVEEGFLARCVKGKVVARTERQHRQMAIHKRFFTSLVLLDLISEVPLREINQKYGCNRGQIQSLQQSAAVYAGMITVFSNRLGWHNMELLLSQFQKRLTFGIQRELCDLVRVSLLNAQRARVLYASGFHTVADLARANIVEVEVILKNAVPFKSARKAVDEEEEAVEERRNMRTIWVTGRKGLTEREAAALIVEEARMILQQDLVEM

IC50 [nM] | Compound
2 | COc1cnc(Cl)cc1-c1cn2ncnc2cc1C(=O)Nc1nnc(C#Cc2cc(C)[nH]n2)s1 [Compound 97]
< 0.25 | COc1cnc(C(F)F)cc1-c1cc(N2CCn3cncc3C2=O)ncc1C(=O)Nc1nnc(C#CC2CC2)s1 [Compound 356]
< 0.25 | COc1cnc(C(F)F)cc1-c1cc(CC#N)ccc1C(=O)Nc1nnc(C#CC2CC2)s1 [Compound 112, 4-(cyanomethyl)-N-(5-(cyclopropylethynyl)-1,3,4-thiadiazol-2-yl)-2-(2-(difluoromethyl)-5-methoxypyridin-4-yl)benzamide]
0.36 | COc1cnc(Cl)cc1-c1cnccc1C(=O)Nc1nnc(C#Cc2cc(C)[nH]n2)s1 [Compound 28, 3-(2-chloro-5-methoxy-4-pyridyl)-N-[5-[2-(5-methyl-1H-pyrazol-3-yl)ethynyl]-1,3,4-thiadiazol-2-yl]pyridine-4-carboxamide]
0.31 | COc1cnc(C(F)F)cc1-c1cc(CC(=O)N(C)C)ccc1C(=O)Nc1ncc(C#CC2CC2)s1 [Compound 215]
2.7 | COc1cnc(Cl)cc1-c1cc(N2CCN(C)C2=O)ccc1C(=O)Nc1nnc(C#CC2CC2)s1 [Compound 295]
< 0.25 | COc1cnc(C(F)F)cc1-c1cc(N2CC3CC(C3)C2=O)ncc1C(=O)Nc1nnc(C#CC2CC2)s1 [Compound 381]
2 | COc1cnc(C(F)F)cc1-c1cc(C[S+](C)[O-])ccc1C(=O)Nc1nnc(C#CC2CC2)s1 (stereo not shown) [Compound 260]
0.53 | COc1cnc(C(F)F)cc1-c1cc(CC#N)ncc1C(=O)Nc1ncc(C#CC2CC2)s1 [Compound 198]
< 0.25 | COc1cnc(C(F)F)cc1-c1cc(C#CC2(C(=O)N(C)C)CC2)ncc1C(=O)Nc1nnc(C#CC2CC2)s1 [Compound 211]
0.61 | COc1cnc(C(F)F)cc1-c1cc(N2CCN(C)CC2=O)ncc1C(=O)Nc1nnc(C#CC2CC2)s1 [Compound 194]
0.72 | COc1cnc(C(F)F)cc1-c1cc(-c2cnn(CC#N)c2)ncc1C(=O)Nc1nnc(C#CC2CC2)s1 [Compound 419]
0.67 | COc1cnc(C(F)F)cc1-c1cc(N2CCCCC2=O)ccc1C(=O)Nc1ncc(C#CC2CC2)s1 [Compound 209]
15 | COc1cnc(Cl)cc1-c1cn(Cc2csc(C)n2)c(=O)cc1C(=O)Nc1nnc(C#CC2CC2)s1 [Compound 332]
< 0.25 | COc1cnc(C(F)F)cc1-c1cc(CC(=O)N2CC(C)(O)C2)ccc1C(=O)Nc1nnc(C#CC2CC2)s1 [Compound 206]
8.4 | COc1ccc(C(F)(F)F)cc1-c1cn(C)c(=O)cc1C(=O)Nc1nnc(C#CC2COC2)s1 [Compound 343]
0.37 | COc1cnc(C(F)F)cc1-c1cc(-c2ccn(C)c2)ncc1C(=O)Nc1nnc(C#CC2CC2)s1 [Compound 411]
0.28 | COc1cnc(C(F)(F)F)cc1-c1cnccc1C(=O)Nc1nnc(C#CC2CC23CC3)s1 (stereo not shown) [Compound 69]
2 | COc1cnc(C(F)F)cc1-c1cc(-c2ccn(C)n2)ncc1C(=O)Nc1ncc(C#CC2CC2)s1 [Compound 117, N-(5-(cyclopropylethynyl)thiazol-2-yl)-2′-(difluoromethyl)-5′-methoxy-6-(1-methyl-1H-pyrazol-3-yl)-[4,4′-bipyridine]-3-carboxamide]
0.45 | COc1cnc(C(F)F)cc1-c1cc(C#CC(C)(C)C#N)ncc1C(=O)Nc1nnc(C#CC2CC2)s1 [Compound 184]
2.1 | COc1ccc(C(F)(F)F)nc1-c1cn(CC(=O)N(C)C)c(=O)cc1C(=O)Nc1nnc(C#CC2CC2)s1 [Compound 51]

IC50 [nM] | Compound
< 0.25 | COc1ccc(C(F)(F)F)cc1-c1cn(CC(N)=O)c(=O)cc1C(=O)Nc1nnc(C#Cc2cc(C)[nH]n2)s1 [Compound 94]
0.36 | COc1cnc(Cl)cc1-c1cn(CC(=O)N(C)C)c(=O)cc1C(=O)Nc1nnc(C#CC2CC2)s1 [Compound 99]
0.26 | Cc1nnc(Cn2cc(-c3cc(C(F)F)ccc3Cl)c(C(=O)Nc3ncc(C#CC4CC4)s3)cc2=O)o1 [Compound 114, 5-(2-chloro-5-(difluoromethyl)phenyl)-N-(5-(cyclopropylethynyl)thiazol-2-yl)-1-((5-methyl-1,3,4-oxadiazol-2-yl)methyl)-2-oxo-1,2-dihydropyridine-4-carboxamide]
3 | COc1cnc(C(F)F)cc1-c1cc(N2CCN(C(C)=O)CC2)ccc1C(=O)Nc1nnc(C#CC2CC2)s1 [Compound 366]
< 0.25 | COc1cnc(C(F)F)cc1-c1cc(N2CC3CC3CC2=O)ncc1C(=O)Nc1nnc(C#CC2CC2)s1 (stereo not shown) [Compound 388]
< 0.25 | COc1cnc(C(F)F)cc1-c1cc(-n2cccc(F)c2=O)ncc1C(=O)Nc1nnc(C#CC2CC2)s1 [Compound 449]
< 0.25 | O=C(Nc1nnc(C#CC2CC2)s1)c1cnc(-n2ccccc2=O)cc1-c1cc(C(F)F)ncc1Cl [Compound 403]
0.25 | COc1cnc(C(F)F)cc1-c1cc(N2CCC3(CCC3)CC2=O)ncc1C(=O)Nc1nnc(C#CC2CC2)s1 [Compound 395]
0.559 | COc1cnc(C(F)F)cc1-c1cc(N2CCNCC2=O)ncc1C(=O)Nc1nnc(C#CC2CC2)s1 [Compound 364]
< 0.25 | C#C[C@H]1CC1c1nnc(NC(=O)c2cnc(-n3ccc(C)cc3=O)cc2-c2cc(C(F)F)ncc2OC)s1 (stereo partly shown) [Compound 431]
< 0.25 | COc1cnc(C(F)F)cc1-c1cc(-n2ncccc2=O)ncc1C(=O)Nc1nnc(C#CC2CC2)s1 [Compound 421]
6.9 | COc1cnc(C(F)F)cc1-c1cc(CN2CCOCC2=O)ccc1C(=O)Nc1nnc(C#CC2CC2)s1 [Compound 227]
7.3 | COc1ccc(C(F)(F)F)cc1-c1cc(N2CCCC2=O)ncc1C(=O)Nc1nnc(C#CC2CC2)s1 [Compound 290]
0.8 | COc1cnc(C(F)(F)F)cc1-c1cnccc1C(=O)Nc1nnc(C2CC2c2ccc(C#N)cc2)s1 (stereo not shown) [Compound 90]
3.2 | COc1cnc(Cl)cc1-c1cn2c(C#N)cnc2cc1C(=O)Nc1nnc(C#CC2CC2)s1 [Compound 341]
2.4 | COc1ncc(C(F)(F)F)cc1-c1cnccc1C(=O)Nc1nnc(C#Cc2cc(C)[nH]n2)s1 [Compound 88]
0.33 | COc1cnc(C(F)F)cc1-c1cc(C#CC(C)(C)CO)ncc1C(=O)Nc1nnc(C#CC2CC2)s1 [Compound 241]
0.42 | COc1cnc(Cl)cc1-c1cc(C(N)=O)ncc1C(=O)Nc1nnc(C#CC2CC2)s1 [Compound 73]
1.1 | COc1cnc(C)cc1-c1cnccc1C(=O)Nc1nnc(C#Cc2cc(C)[nH]n2)s1 [Compound 85]
< 0.25 | Cc1nnc(Cn2cc(-c3cc(C(F)(F)F)ccc3Cl)c(C(=O)Nc3ncc(C#CC4CC4)s3)cc2=O)o1 [Compound 115, 5-(2-chloro-5-(trifluoromethyl)phenyl)-N-(5-(cyclopropylethynyl)thiazol-2-yl)-1-((5-methyl-1,3,4-oxadiazol-2-yl)methyl)-2-oxo-1,2-dihydropyridine-4-carboxamide]

Compound | IC50 [nM]
COc1cnc(Cl)cc1-c1cc(-c2ccn(C)n2)ccc1C(=O)Nc1nnc(C#CC2CC2)s1 [Compound 307] | < 0.25
COc1cnc(C(F)F)cc1-c1cn(C)c(=O)cc1C(=O)Nc1nnc(C#CC2CC2)s1 [Compound 37, N-(5-(cyclopropylethynyl)-1,3,4-thiadiazol-2-yl)-2′-(difluoromethyl)-5′-methoxy-1-methyl-6-oxo-1,6-dihydro-[3,4′-bipyridine]-4-carboxamide] | 3.3
